This is an account of results in patent US8883790B2, “Pharmaceutical combinations” (Astex Therapeutics Limited, priority 2006, dated 2014).

Broadly, the IC50 is the point on the concentration scale where inhibition reaches its midpoint. What is called Kd is the free concentration of one partner at which half of the binding sites on the other are occupied at equilibrium, for simple one-to-one binding. In general, half-life refers to the time in which the quantity being followed falls by half.

Counter-ions that a name gives are not always drawn.

Data set [1] is described as follows: Solubility of acid addition salts in a liquid carrier (e.g. water). The note with it: salts of 1-(2,6-difluorophenyl)-N-[3-(5-morpholin-4-ylmethyl-1H-benzimidazol-2-yl)-1H-pyrazol-4-yl]-urea.
Data set [2] can be described thus: Solid-state and dissolution properties of the L-lactate salt of the compound of formula (1) and its crystalline forms. Type of data set: physicochemical. The note with it: for stability of crystalline form: crystalline forms of the L-lactate salt of the compound of formula (1). The source says:
The lactic acid salts of the compound of formula (1) exist in one unstable form (FL3) and two stable forms (FL1 and FL2).

For data set [3] the following is noted: antitumour agent; cited from earlier work.
A further data set has as its system HCT116 cell line. As to the kind of experiment: Anti-proliferative activity, Alamar Blue assay. Type of data set: cell-based. Particulars: Homo sapiens, HCT-116, 72 h. The protocol: The anti-proliferative activities of compounds for use in the combinations of the invention can be determined by measuring the ability of the compounds to inhibition of cell growth in a number of cell lines such as the human colon cancer cell line HCT116. […] The method is based on the ability of viable cells to reduce resazurin to its fluorescent product resorufin. […] The number of viable cells is determined by Alamar Blue assay as before. Cell lines can be obtained from the ECACC (European Collection of cell Cultures).
(The colour change of resazurin is a common sign of viable cells or microbes.)

The target of data set [4] is T1, Human Hsp90a N-terminal domain (Homo sapiens, UniProt P07900).
T1 construct: purification of the Human Hsp90a N-terminal domain; made in house
As to the kind of experiment: Isothermal titration calorimetry (ITC) binding to human Hsp90. Particulars: pH 7.4. Here is the method:
The ability of the compounds for use in the combinations of the invention to bind to human Hsp90 proteins was determined using isothermal titration calorimetry.
Isothermal titration calorimetry (ITC) experiments were performed with a VP-ITC titration calorimeter (Microcal Inc., Northampton, Mass., USA). […] All solutions were filtered and degassed prior to a titration being carried out. The enthalpy change resulting from each injection of ligand was obtained through integration of the calorimetric signal. Data were analysed using Origin 7.0 (Microcal Software Inc., Northampton, Mass.). Heats of dilution were estimated using the final injections of each individual titration and subtracted before data fitting. Different ITC experimental formats were employed in order to obtain compound dissociation constants (Kd's) over a wide range of affinities. […] In this type of experiment the stoichiometry parameter (N) was locked at 1 for data fitting.
For orientation: ITC needs no label: the signal is the heat of the interaction.

The format of data set [5] is physicochemical. The source says:
Samples for X-ray powder diffraction (XRPD) data collection were gently ground by marble mortar and loaded into a crystallographic capillary (from Hampton Research, Quartz or Glass Type 10, 0.4 or 0.7 mm diameter). Diffraction patterns were collected at room temperature using CuKa radiation (λ=1.5418 Å) from a Rigaku rotating anode RU3HR, Osmic blue confocal optics, ¼ c goniometer and a Rigaku HTC image plate detector. 2D Images were collected while spinning φ axis with a detector to crystal distance of 250 mm. Data collection was controlled by CrystalClear software and 2D images were converted to 1D plot (20 vs. Intensity) by Datasqueeze (intensity averaged over the azimuthal angle 0<χ<360° for 2θ range 3-30° in 0.02° steps). In house program AstexXRPD was used for manipulation and visualisation of 1D XRPD patterns.
It is nominally a tri-hydrate because there are 3 crystal water positions in the asymmetric unit, but they are not 100% occupied at room temperature and laboratory humidity. A saturated solution of form FL1 in methanol:water 9:1 was prepared at room temperature. Slow precipitation with approximately 4 volumes of acetone gave form FL2 which is stable in air.
A saturated solution of form FL1 in THF was prepared at room temperature. Slow precipitation with approximately 4 volumes of heptane gave form FL3.

For data set [6] the following is noted: clinical studies; cited from earlier work.
A further data set has as its system PKG. The note with it: cited from earlier work.
The next data set concerns OVCAR-3 tumour cells. Particulars: OVCAR-3 tumour cells in which PKB is amplified; concentrations of 50 and 100 microM; cited from earlier work.
The next data set deals with PKC. Particulars: cited from earlier work.
The conditions of data set [7]: mice; doses 10 times more than were needed for antitumour activity; cited from earlier work.
Data set [8] has as its system Acute Promyelocytic Leukemia (APL). The note with it: APL patients; cited from earlier work.
Data set [9] in a line: Physicochemical properties of the crystalline lactate salt of compound (AA).
Data set [10] has as its system P-glycoprotein-overexpressing subline of CCRF-CEM. The note with it: cited from earlier work.
The subject of the next data set is tubulin. The note with it: relative to epothilone A or paclitaxel; cited from earlier work.
Setting [11] is: lactate (particularly L-lactate) salt of compound (AA).

As to “1-(2,6-difluorophenyl)-N-[3-(5-morpholin-4-ylmethyl-1H-benzimidazol-2-yl)-1H-pyrazol-4-yl]-urea [D-glucuronate]”, the solubility result in data set [1] is listed as “greater than 25 mg/ml”.
As for `CC(C)c1cc(C(=O)N2Cc3ccc(CN4CCN(C)CC4)cc3C2)c(O)cc1O` [(2,4-dihydroxy-5-isopropyl-phenyl)-[5-(4-methyl-piperazin-1-ylmethyl)-1,3-dihydro-isoindol-2-yl]-methanone], the hygroscopicity result in data set [2] (L-lactate of (2,4-dihydroxy-5-isopropyl-phenyl)-[5-(4-methyl-piperazin-1-ylmethyl)-1,3-dihydro-isoindol-2-yl]-methanone) is “non-hygroscopic”. In addition, the rate of solubility result in data set [2] (compared with free base and hydrochloric and sulphuric acid salts) was “better rate of solubility than the free base and other salts tested”.
Regarding `CCN[C@H]1CO[C@@H](O[C@H]2[C@H](O[C@H]3C#C/C=C\C#C[C@]4(O)CC(=O)C(NC(=O)OC)=C3/C4=C\CSSSC)O[C@H](C)[C@@H](NO[C@H]3C[C@H](O)[C@H](SC(=O)c4c(C)c(I)c(O[C@@H]5O[C@@H](C)[C@H](O)[C@@H](OC)[C@H]5O)c(OC)c4OC)[C@@H](C)O3)[C@@H]2O)C[C@@H]1OC` [Calicheamicin], the “potency relative to adriamycin” value in data set [3] is “over 1,000 times”.
For the compound `CC(C)c1cc(C(=O)N2Cc3ccccc3C2)c(O)cc1O` [Example 5, (1,3-Dihydro-isoindol-2-yl)-(2,4-dihydroxy-5-isopropyl-phenyl)-methanone], the IC50 with HCT116 cell line is under 1 µM.
Turning to `CC(C)c1cc(C(=O)N2Cc3ccc(C(=O)N4CCNCC4)cc3C2)c(O)cc1O` [Example 54, (2,4-dihydroxy-5-isopropyl-phenyl)-[5-(piperazine-1-carbonyl)-1,3-dihydro-isoindol-2-yl]-methanone hydrochloride], the IC50 in the data set on HCT116 cell line was under 1 µM.
On to `CC(C)c1cc(C(=O)N2Cc3ccc(CN4CCN(C)CC4)cc3C2)c(O)cc1O` [Example 55, (2,4-dihydroxy-5-isopropyl-phenyl)-[5-(4-methyl-piperazin-1-ylmethyl)-1,3-dihydro-isoindol-2-yl]-methanone], for which the Kd in data set [4] is under 0.1 µM.
With `CC(C)c1cc(C(=O)N2Cc3ccc(CN4CCN(C)CC4)cc3C2)c(O)cc1O` [FL1, (2,4-dihydroxy-5-isopropyl-phenyl)-[5-(4-methyl-piperazin-1-ylmethyl)-1,3-dihydro-isoindol-2-yl]-methanone L-lactate], in [5], the “Stability of crystal form” value was “stable in air and at 40 °C and 75% RH for at least one month”. Also, the “stability of crystalline form” value in [2] is given as “stable”.
On to `CC(C)c1cc(C(=O)N2Cc3ccc(CN4CCN(C)CC4)cc3C2)c(O)cc1O` [FL2, (2,4-dihydroxy-5-isopropyl-phenyl)-[5-(4-methyl-piperazin-1-ylmethyl)-1,3-dihydro-isoindol-2-yl]-methanone L-lactate], for which the “Stability of crystal form” value in [5] was “stable in air”. Moreover, the “stability of crystalline form” value in [2] is listed as “stable hydrate”.
Take `CC(C)c1cc(C(=O)N2Cc3ccc(CN4CCN(C)CC4)cc3C2)c(O)cc1O` [FL3, (2,4-dihydroxy-5-isopropyl-phenyl)-[5-(4-methyl-piperazin-1-ylmethyl)-1,3-dihydro-isoindol-2-yl-]-methanone L-lactate]: in [5], the “Stability of crystal form” value is given as “transforms in air into form FL1”. Moreover, the “Crystal form by XRPD after drying in air” value in data set [5] (sample dried in air for 2 days) is “conversion to form FL1 had occurred”. Besides, the “stability of crystalline form” value in [2] is given as “unstable”.
For `CCCCCCCCCCCCCCCCCCOP(=O)([O-])OC1CC[N+](C)(C)CC1` [KRX-0401, Perifosine], the half-life in data set [6] was about 100 h.
Regarding `O=S(=O)(NCCNCC=C(c1ccccc1)c1ccccc1)c1cccc2cnccc12` [NL-71-101], the IC50 in the data set on PKG is 36 µM; in the data set on PKC, 104 µM. Besides, in the data set on OVCAR-3 tumour cells, the apoptosis induction entry is given as “induced apoptosis”.
Regarding `CCOC(=O)c1ccc2[nH]c3c(OC)c4[nH]c5ccc(C(=O)OCC)cc5c4cc3c2c1` [SR-13668], the adverse effects result in [7] was “no adverse effects”.
Turning to `CC1=C(/C=C/C(C)=C/C=C/C(C)=C/C(=O)O)C(C)(C)CCC1` [Tretinoin, all-trans retinoic acid], in [8], the remissions induced is 64-100%.
For `CC(C)c1cc(C(=O)N2Cc3ccc(CN4CCN(C)CC4)cc3C2)c(O)cc1O` [crystalline lactate salt, (2,4-dihydroxy-5-isopropyl-phenyl)-[5-(4-methyl-piperazin-1-ylmethyl)-1,3-dihydro-isoindol-2-yl]-methanone], in [9] (lactate (particularly L-lactate) salt of 1-cyclopropyl-3-[3-(5-morpholin-4-ylmethyl-1H-benzoimidazol-2-yl)-1H-pyrazol-4-yl]-urea (compound (AA))), the hygroscopicity result is reported as “non-hygroscopic”. In data set [9] (setting [11]), the solubility in water result is on record as “good solubility in water” and the storage stability result is “stable to storage”.
As for `C/C1=C/C[C@@H](/C(C)=C/c2csc(C)n2)OC(=O)C[C@H](O)C(C)(C)C(=O)[C@H](C)[C@@H](O)[C@@H](C)CCC1` [desoxyepothilone B], in data set [10], the IC50 was 0.017 µM.
On to `C/C(=C\c1csc(C)n1)[C@@H]1C[C@@H]2O[C@]2(C)CCC[C@H](C)[C@H](O)[C@@H](C)C(=O)C(C)(C)[C@@H](O)CC(=O)O1` [epothilone B], for which the “potency in inducing tubulin polymerization in vitro” value with tubulin is “approximately twice as potent as epothilone A or paclitaxel”.
`CC(C)c1cc(C(=O)N2Cc3ccc(CN4CCN(C)CC4)cc3C2)c(O)cc1O` [lactate salt, (2,4-dihydroxy-5-isopropyl-phenyl)-[5-(4-methyl-piperazin-1-ylmethyl)-1,3-dihydro-isoindol-2-yl]-methanone]: the “solid-state stability in conditions of high relative humidity” value in [9] (lactate salt of compound (AA), gravimetric vapour sorption) was “stable anhydrous crystalline form”.
